From patent US12161654B2, “Stability of vitamin D in β-hydroxy-β-methylbutyrate (HMB)” (Metabolic Technologies, LLC, priority 2018, dated 2024)

Experiments:
[1] = healthy young or old adults; cited from earlier work
[2] = after HMB is fed; cited from earlier work
[3] = pH of HMBFA and buffered HMBFA; type: physicochemical
Description: In most instances, the HMB utilized in clinical studies and marketed as an ergogenic aid has been in the calcium salt form. Recent advances have allowed the HMB to be manufactured in a free acid form for use human and animal uses, and preferably as a nutritional supplement or incorporated into foodstuffs. […] The pH of HMBFA is <3.
Preparation of Buffered HMB in the Free Acid Form (HMBFA) Briefly, 400 g HMBFA (TSI lot 12111036) was weigh into a one liter beaker and then 37.8 g of with potassium carbonate (K2CO3) was added to the HMBFA. A stir bar was added and the mixture was stirred for 60 h. The resulting pH was approximately 4.5. Alternatively, the reaction may be accelerated by mixing water (35 g) with potassium carbonate (37) g and then adding HMBFA (400 g).

SMILES: CC(C)(O)CC(=O)O [HMB, β-hydroxy-β-methylbutyrate]
- side effects [1]: no side effects
- loss of HMB to urine [2]: 20-50%

SMILES: CC(C)(O)CC(=O)O [HMBFA, β-hydroxy-β-methylbutyrate]
- pH [3]: < 3
